Laboratory results published in patent publication US6133302A, “5-(3-Phenyl-3-oxo-propyl)-1H-tetrazole derivatives” (Pharmacia & Upjohn SpA, priority 1997, dated 2000).

Target: T1, kynurenine-3-hydroxylase (Rattus norvegicus, UniProt O88867)
T1 construct: Rat liver mitochondrial extract was used as enzymatic preparation for this assay; from tissue; host or cells: rat liver mitochondrial extract
Assay: KYN-3-OH inhibition; kynurenine 3-hydroxylase assay based on enzymatic synthesis of tritiated water in rat liver mitochondrial extract
Format: biochemical
Conditions: 37° C., 30 min, pH 8.1, 0.025 mM L-Kynurenine, 0.8 mM NADPH
Protocol: The assay for kynurenine 3-hydroxylase is based on the enzymatic synthesis of tritiated water during the hydroxylation reaction. Radiolabeled water was quantified following selective adsorption of the isotopic substrate and its metabolite with activated charcoal.
Rat liver mitochondrial extract was used as enzymatic preparation for this assay.
The assay for kynurenine 3-hydroxylase activity was carried out at 37° C. for a time of 30 min. The reaction mixture having a total volume of […] was constituted of 44 mg of suspended extract, 100 mM Tris/Cl^- buffer pH 8.1, 10 mM EDTA, 100 mM KCl, 0.8 mM NADPH, 0.025 mM L-Kynurenine, 0.5 mCi L-(3,5-^3 H)Kynurenine (10 Ci/mmol) and […] of different concentration of inhibitor solutions. After the incubation, the reaction was terminated by adding 1 ml of 7.5% (W/v) activated charcoal, vortexed and centrifuged for 7 min.
A […] aliquot of supernatant was counted by scintillation spectroscopy in 5 ml of liquid scintillation.

T1 sequence (O88867 whole entry): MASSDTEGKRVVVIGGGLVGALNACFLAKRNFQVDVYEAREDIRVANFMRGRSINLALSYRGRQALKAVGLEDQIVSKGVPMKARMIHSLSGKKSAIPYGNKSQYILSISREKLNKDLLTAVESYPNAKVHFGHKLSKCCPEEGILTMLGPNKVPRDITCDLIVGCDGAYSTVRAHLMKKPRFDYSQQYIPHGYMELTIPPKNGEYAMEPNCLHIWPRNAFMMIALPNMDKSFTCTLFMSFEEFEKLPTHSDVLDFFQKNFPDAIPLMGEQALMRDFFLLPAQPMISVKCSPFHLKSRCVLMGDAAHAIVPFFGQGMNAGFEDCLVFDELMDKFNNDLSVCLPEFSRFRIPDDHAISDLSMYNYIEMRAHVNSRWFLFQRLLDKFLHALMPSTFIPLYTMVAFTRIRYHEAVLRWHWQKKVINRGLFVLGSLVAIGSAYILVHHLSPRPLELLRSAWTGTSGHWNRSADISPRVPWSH

IC50: 2320 nM
SMILES: O=C(CC(Cc1ccccc1)c1nnn[nH]1)c1ccc(Cl)c(Cl)c1 (stereo not shown) [PNU-168778, 5-[1-benzyl-3-(3,4-dichlorophenyl)-3-oxo-propyl]-1H-tetrazole]
